The source of these data is patent publication US6103888A, “Mammalian cationic proteins having lipopolysaccharide binding and anti-coagulant activity” (priority 1999, dated 2000).

The subject of one test is ddY mice. Kind of test: Tissue factor lethality model. It is filed as in vivo. The following applies: for Survival (%): Tissue factor 1.0 mg/mouse IV. The method, then:
Tissue factor lethality model. Reference tissue factor (simplastin, 1 mg/mouse) was IV injected into ddY mice (male, 20-week-old, 38-45 g) incubated with or without peptide.
^a Tissue factor (Simplastin, 10 mg/ml was mixed with equal volume of
synthetic peptide 100 μg/ml or 50 μg/ml and 0.2 ml of the mixture
injected IV. ddY mice (20 weeks, 38-45 gm).

For test [1], the system named is thioglycollate-stimulated murine peritoneal macrophages. Kind of test: LPS-induced tissue factor generation by macrophages (clotting assay). It is filed as cell-based. The method, then:
Tissue factor assay. Salmonella minnesota smooth LPS was incubated with each peptide (1 μg/ml) for 5 min., then the mixture was added to peritoneal murine macrophages obtained 4 days after thioglycollate stimulation. Cells were cultured for 6 hours prior to assay of tissue factor by clotting assay.
Various concentrations of Salmonella minnesota smooth LPS were incubated with each peptide (197 (RNIP), 36-1, 32-1, and 50-2) at 37° C. for 5 minutes prior to mixing with thioglycollate-stimulated murine peritoneal macrophages. Production of tissue factor after 6 hr. was measured by clotting assay. […] In the absence of LPS no tissue factor is synthesized by these cells.

In test [2] the test system is Human plasma. Kind of test: Prothrombin time (PT). The format is biochemical. The method, then: Prothrombin time (PT). Human plasma (100 μl) was incubated with 100 μl of each peptide at 37° C. for 3 min., then 100 μl of tissue factor (250 μg/ml) CaCl2 was added and clotting time was measured.
The target of another test is T1, factor X (Homo sapiens, UniProt P00742).
T1 construct: purchased Sigma Chemical Co., St. Louis, Mo
T1 sequence (P00742 183-488): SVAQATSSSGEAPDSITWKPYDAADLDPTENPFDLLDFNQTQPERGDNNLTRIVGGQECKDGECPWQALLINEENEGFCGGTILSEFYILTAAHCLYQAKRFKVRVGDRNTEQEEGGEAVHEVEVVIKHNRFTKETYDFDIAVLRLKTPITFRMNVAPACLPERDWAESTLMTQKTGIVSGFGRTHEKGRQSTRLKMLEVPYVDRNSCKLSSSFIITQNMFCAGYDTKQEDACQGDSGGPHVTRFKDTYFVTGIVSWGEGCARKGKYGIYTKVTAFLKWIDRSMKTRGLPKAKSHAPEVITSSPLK
T1 sequence (P00742 41-179): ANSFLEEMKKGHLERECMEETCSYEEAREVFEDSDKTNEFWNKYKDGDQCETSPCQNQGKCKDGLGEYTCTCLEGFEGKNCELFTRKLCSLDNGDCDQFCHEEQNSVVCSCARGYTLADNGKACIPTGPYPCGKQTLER
Kind of test: Factor X activation by tissue factor and factor VII, synthetic substrate S-2222. The note with it: synthetic substrate; listed as 197. The format is biochemical. The method, then: Factor Xa activity using synthetic substrate. A reaction mixture of factor VII (1 unit/ml, 200 μl), factor X (1 unit/ml, 200 μl), tissue factor (2.5 mg/ml, 50 μl), 25 mM-CaCl2 (50 μl) and 50 μl of several concentration of peptide was incubated at 37° C. for 10 min. To 200 Al of the reaction mixture, 60 μl of 4 mM S-2222, a synthetic substrate for factor Xa, and 340 μl of Tris-HCl buffer, pH 8.2, was added and further incubated for 15 min. The reaction was stopped by adding 60 μl of 50% acetic acid, and OD for p-nitroaniline was read at 405 nm.

The test system of the next test is human mononuclear cells. Nature of the test: LPS-induced tissue factor by human mononuclear cells (clotting assay). The format is cell-based. Here is the method:
Human mononuclear cells were separated from citrated peripheral blood by centrifugation over Sodium-metrizoate-Ficoll (lymphocyte Separation Medium, Japan Antibody Institute, Gumma). The resulting mixed mononuclear cell suspension was washed 3 times with RPMI 1640 media. Cell suspension (1×10^6 /ml) was stimulated with LPS for 16 to 18 hr.
Veronal buffered saline (VBS) was added to the cell pellet, lysed by 3 cycles of freeze/thaw and sonicated for 10 sec with a hand-held sonicator microbe (Handy Sonic, model UR-20P, Tomy Seiko LTD, Tokyo). Tissue factor activity was tested in modified unactivated partial thromboplastin time (7). One tenth ml of cell lysate (1×10^6 /ml) was preincubated with mouse plasma at 37° C. for 3 min. Then 0.1 ml of 25 mM-CaCl2 which contains phospholipid was added to the mixture and clotting time was measured using a fibrometer (Bio Quest Division, Becton Dickinson, Cokeysville, USA). A standard curve obtained from serial two-fold dilutions of rabbit brain thromboplastic (Simplastin, Ono Pharmaceutical Co.) was used to transpose tissue factor activity into arbitrary tissue factor units (1 μg/ml) suspension of rabbit brain was assigned a value of 1,000 units).
The mean tissue factor units+standard error was determined from three to four samples. Student's t test for unpair data was used to determine the statistically significant differences. A two-tailed P value of <0.05 was considered significant. […]

Test [3] deals with Salmonella minnesota ReLPS sensitized sheep erythrocytes. Nature of the test: LPS hemagglutination assay (MAC). It is filed as binding. The method, then: For hemagglutination assays, erythrocytes were sensitized with LPS as follows. One ml of 1% erythrocyte suspension (human 0 type, C3H/HeN mouse or sheep) was mixed with 0.2 ml of LPS solution and incubated at 37° C. for 30 min, followed by washing with phosphate buffered saline (PBS), and then the concentration of suspension was adjusted to 1.0%. In the case of S-LPS, the solution was heated at 100° C. for 1 hour before sensitization of erythrocytes. […] Activity of CAP was expressed as a minimum agglutinating concentration (MAC) of CAP. According to the method of Kirikae et al. (1986) Microbiol. Immunol. 30:269-274, 50 μl of 2-fold serial dilution of Re-LPS was added to 50 μl of 1.0% rabbit erythrocyte suspension, and incubated at 37° C. for 3 hour. Minimum agglutinating concentration of Re-LPS was expressed as 1 HA unit.

For test [4], the system named is Human plasma. Nature of the test: Partial thromboplastin time (PTT). The format is biochemical. The note with it: dose dependent. Here is the method: Partial thromboplastin time (PTT). Human plasma (100 μl) was incubated with each peptide (100 μl) at 37° C. for 3 min., then 100 μl of CaCl2 containing phospholipid was added and clotting time was measured.
The mark [5] stands for this setting: LPS 0.1 μg/ml, peptide HA units: RNIP 2, CAP-18 1, HP-1 4, HP-2 2.

Several values for one entry are separate records, joined by “and”; a condition that tells them apart may be missing. Equal values may be shown once.

Regarding “RNIP: rabbit reactive nitrogen inhibitory protein, amino acids 135-171 of SEQ ID NO:4; purified from granulocytes (Tables 1-3) or synthetic (#197) (GLRKRLRKFRNKIKEKLKKIGQKIQGLLPKLAPRTDY)”, the “Survival (%)” value with ddY mice (Peptide #197 5 μg/mouse) worked out at 43%. Also, in the test on ddY mice (Peptide #197 10 μg/mouse, p < 0.05 vs tissue factor control), the “Survival (%)” value turned out to be 57%. In addition, the reduction of mortality with ddY mice (tissue factor IV (Simplastin, 1 mg/mouse)) came out at 57%. For the same substance, the “inhibition of LPS-induced tissue factor generation, peptide added after LPS” value in test [1] (added as late as 3 hours after the LPS stimulus) is given as “Significant inhibition”. Also, the “inhibition of LPS induced tissue factor (in words)” value in test [1] (peptides 1 μg/ml incubated with S. minnesota smooth LPS 5 minutes, 6 hr) is reported as “inhibition”. In the test on Human plasma [2], the “inhibition of the prothrombin time (PT), in words” value is “inhibited”. For the same substance, in the test with factor X, the “IC50, Tissue factor VII, X to Xa” value is 0.3 to 0.7 µg/mL. Also, in the test on human mononuclear cells (setting [5]), the “Inhibition (%)” value was 51% and 41%; the “Tissue Factor Units, value in parentheses (ratio to unstimulated control)” value is 9.0. The “Δ Units (%)” value in the test with human mononuclear cells (LPS 0.1 μg/ml, relative to LPS alone (100), 960 min) is 49% and 59%. Moreover, in the test on human mononuclear cells (no LPS, peptide alone), the “Tissue Factor Units, value in parentheses (ratio to unstimulated control)” value was 1.3; the “Tissue factor units” value was 636 ± 141 Units ×10^3 /3.6 × 10^4 cells; the “Δ Units” value was 144 Units. Besides, the “Hemagglutination [MAC], minimum agglutinating concentration” value in test [3] stood at 7.9 µg/mL. The “inhibition of the partial thromboplastin time (PTT), in words” value in the test with Human plasma [4] was “inhibited”.
